# Experimental data taken from article PMC10924921, “Mi-2β promotes immune evasion in melanoma by activating EZH2 methylation” (Nature Communications, 2024).
# Entries after “also recorded” stand apart in the source; their conditions may differ.
# What was measured:
# Pharmacokinetics in rats = assay type: in vivo; details: Sprague-Dawley, rat, serum, ip, intraperitoneal 1.0 mg/kg, male SD rats
# Experimental: Compound Z36-MP5 was evaluated in a pharmacokinetic study in male Sprague-Dawley (SD) rats following intraperitoneal injection of Z36-MP5 at 1.0 mg/kg as a solution in 5% DMSO, 30% PEG400, and 65% corn oil. Blood was collected at 0.25, 0.5, 1, 2, 4, 8, and 24 h following intraperitoneal injection. The blood samples were placed in wet ice, and serum was collected after centrifugation. Serum samples were frozen and stored at −80 °C. The serum samples were analyzed utilizing HPLC-coupled tandem mass spectrometry. Values are calculated from arithmetic mean plasma concentrations (n = 3 rats per condition). Rats experiments were done according to protocols approved by the ethics committee review board of University of Arkansas for Medical Science and in accordance with the guidelines set forth by the US National Institutes of Health.
# B16F10 cell graft [1] = assay: Antibody-mediated CD8 T-cell depletion and Z36-MP5 treatment; assay type: in vivo, mouse; details: Z36-MP5 30 mg/kg, 200 µg anti-CD8
# [2] = system: tumor-infiltrating lymphocytes in BRafV600E/Ptennull melanoma; assay: Flow cytometry of tumor-infiltrating lymphocytes, genetically engineered model; assay type: in vivo, mouse
# Experimental: Mi-2β^lox/lox mice were generated and generously provide by Dr. Georgopoulos lab (Massachusetts General Hospital at Harvard Medical School)[31]. Tyr::CreER;BRaf^CA;Pten^lox/lox mice were purchased from Jackson laboratories (Stock No: 013590). All strains of mice were on the background of C57BL/6J background. Gene activation and silencing were induced with intraperitoneal (i.p.) administration of 100 µL/mouse/day tamoxifen (20 mg/mL) for constant 5 days. […] Tumor growth was then monitored each the other day. […] When the following conditions occur, the mouse is regarded as dead and euthanized, including weight loss greater than 15%; significant abdominal distension, especially if it begins to compromise respiratory ability of animal; hunched posture; failure to eat or drink; absence of (or abnormal) feces or urine output; reluctance to move or abnormal gait; Discharges or hemorrhage. Abnormal behavior or vocalizations and tumor size exceeded 1 cm^3. All animal experiments were done according to protocols approved by the ethics committee review board of Boston University and in accordance with the guidelines set forth by the US National Institutes of Health and The ethics committee review board of The 2nd Hospital and School of Medicine, Zhejiang University. […]
# [3] = target: recombinant purified human Mi-2β protein (Homo sapiens, UniProt Q14839); assay: FRET-based nucleosome repositioning assay (EpiDyne-FRET); details: for IC50: IC50 against Mi-2β
# [4] = system: Cxcl9 and Cxcl10 mRNA in B16F10 cells; assay: RT-qPCR of Mi-2β target genes in treated cells; assay type: cell-based, mouse
# Experimental: Z36-MP5 was chosen for further validation and experimental therapeutics in vivo. […] To investigate its cellular inhibitory activity, B16F10 cells were treated with Z36-MP5 at concentrations ranging from 5 to 100 µM, and the activation of Mi-2β target genes measured by RT-qPCR. […] In addition, the pharmacokinetic properties of Z36-MP5 in Sprague-Dawley rats with administration of intraperitoneal injection dose of 1.0 mg/kg. […] To exclude any effects on the host cells, we implanted Mi-2β-null melanoma cells into C57BL6 mice and then treated the mice with Z36-MP5 accompanied by anti-PD-1 therapy.
# The total RNA was extracted with QIAGEN RNeasy kit […] for cDNA synthesis with SuperScript II Reverse Transcriptase (Invitrogen). In total, 40 ng cDNA was used for quantitative real-time PCR amplification by TaqMan Gene Expression Master Mix (Thermo Fisher Scientific). The relative transcript levels were normalized with GAPDH expression. The data were calculated with the comparative CT method. Primers for RT-qPCR assays are shown in Supplementary Data 3.
# 468 kinases = assay: KINOMEscan screening (DiscoveRx); assay type: binding; details: 1000 nM
# B16F10 cell graft [5] = assay: Syngeneic melanoma graft mouse model, tumor growth and survival
# Experimental: Mi-2β knockdown or Scramble B16F10 cells (1.5 × 10^5) were mixed with BD matrigel (Matrix Growth Factor Reduced) (BD, 354230) in 100 μl PBS, and then subcutaneously injected into the right flanks of C57BL/6 mice of 8–10 week old (from the Jackson Laboratory, 000664). Tumor growth was measured with calipers, and size was expressed in cubic centimeters every 3 days. For antibody treatment, control IgG (10 mg/kg) or anti-PD-1 (RMP1-14, BioXCell, 10 mg/kg) was injected intraperitoneally (i.p.) on day 6, 9, 12, 15 and 18 after tumor cell inoculation. For tumor growth curve, grafts were measured with calipers and established (0.5*length × width^2) every three days. For survival tests, mice were euthanized when the tumor size exceeded 1 cm^3. […] The mice were euthanized after indicated days or when the allowable endpoint size (1 cm^3) was reached.
# Mi-2β mutation (H727A) = target: T1, Mi-2β mutation (H727A) (Homo sapiens, UniProt Q14839, H727A); assay: FRET-based nucleosome repositioning assay with mutant Mi-2β; assay type: biochemical; details: ATP 1 mM, Z36-MP5 10 µM
# T1 construct: made in house
# T1 sequence (Q14839 whole entry H727A): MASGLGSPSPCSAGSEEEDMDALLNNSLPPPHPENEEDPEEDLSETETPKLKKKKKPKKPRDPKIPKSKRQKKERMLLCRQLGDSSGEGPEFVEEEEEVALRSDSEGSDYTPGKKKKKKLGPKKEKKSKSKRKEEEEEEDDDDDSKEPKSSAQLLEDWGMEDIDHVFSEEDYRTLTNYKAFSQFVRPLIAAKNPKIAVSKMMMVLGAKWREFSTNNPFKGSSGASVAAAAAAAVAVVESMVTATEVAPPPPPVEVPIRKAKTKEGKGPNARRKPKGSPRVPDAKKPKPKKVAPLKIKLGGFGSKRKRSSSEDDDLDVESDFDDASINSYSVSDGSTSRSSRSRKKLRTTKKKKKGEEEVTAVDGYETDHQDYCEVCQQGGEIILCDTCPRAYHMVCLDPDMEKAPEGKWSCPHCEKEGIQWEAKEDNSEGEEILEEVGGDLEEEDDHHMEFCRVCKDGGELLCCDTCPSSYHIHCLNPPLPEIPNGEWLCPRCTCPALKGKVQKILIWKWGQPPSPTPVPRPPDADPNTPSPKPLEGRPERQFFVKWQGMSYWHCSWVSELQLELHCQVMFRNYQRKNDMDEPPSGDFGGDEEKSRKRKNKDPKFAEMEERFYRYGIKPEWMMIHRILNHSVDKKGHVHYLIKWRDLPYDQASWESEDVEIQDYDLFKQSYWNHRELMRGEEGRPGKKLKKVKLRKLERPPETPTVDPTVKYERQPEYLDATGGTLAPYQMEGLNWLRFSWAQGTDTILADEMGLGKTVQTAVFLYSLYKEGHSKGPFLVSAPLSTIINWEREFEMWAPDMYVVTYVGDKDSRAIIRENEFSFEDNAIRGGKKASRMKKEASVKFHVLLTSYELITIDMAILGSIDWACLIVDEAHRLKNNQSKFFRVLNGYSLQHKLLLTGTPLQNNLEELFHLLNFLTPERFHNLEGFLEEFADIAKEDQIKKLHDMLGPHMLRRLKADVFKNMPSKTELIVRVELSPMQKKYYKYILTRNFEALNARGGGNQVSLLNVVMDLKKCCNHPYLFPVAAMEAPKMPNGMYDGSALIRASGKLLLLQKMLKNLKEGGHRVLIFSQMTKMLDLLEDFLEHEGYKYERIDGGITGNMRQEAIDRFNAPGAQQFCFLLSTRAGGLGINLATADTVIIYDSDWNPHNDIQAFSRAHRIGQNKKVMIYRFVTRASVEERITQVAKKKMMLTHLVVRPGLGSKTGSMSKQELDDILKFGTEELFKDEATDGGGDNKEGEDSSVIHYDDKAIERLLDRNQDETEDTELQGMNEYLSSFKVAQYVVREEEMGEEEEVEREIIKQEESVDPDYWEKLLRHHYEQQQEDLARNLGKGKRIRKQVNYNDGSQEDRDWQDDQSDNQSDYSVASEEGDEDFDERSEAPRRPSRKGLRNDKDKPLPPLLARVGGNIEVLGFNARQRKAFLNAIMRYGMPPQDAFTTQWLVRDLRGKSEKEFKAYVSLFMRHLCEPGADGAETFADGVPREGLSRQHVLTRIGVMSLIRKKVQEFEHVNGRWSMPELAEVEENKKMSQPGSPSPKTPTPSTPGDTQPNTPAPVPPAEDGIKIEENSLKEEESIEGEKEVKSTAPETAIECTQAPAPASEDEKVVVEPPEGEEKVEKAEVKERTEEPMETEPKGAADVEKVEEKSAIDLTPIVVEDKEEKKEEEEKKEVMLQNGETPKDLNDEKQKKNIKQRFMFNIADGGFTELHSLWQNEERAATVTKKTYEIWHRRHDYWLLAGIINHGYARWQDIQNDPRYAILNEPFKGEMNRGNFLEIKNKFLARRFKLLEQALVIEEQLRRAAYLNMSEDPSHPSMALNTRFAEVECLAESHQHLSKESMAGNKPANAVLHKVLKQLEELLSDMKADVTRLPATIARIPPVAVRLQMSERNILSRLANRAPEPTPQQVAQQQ
# Experimental: based nucleosome repositioning assays were performed with different concentrations of Mi-2β and a non-
# limiting ATP concentration (1 mM) for the indicated incubation time (n=3). c The ATP titration
# (concentrations ranging from 0.1 to 300 µM) was performed with the FRET-based nucleosome
# time. […] Values represent mean
# based nucleosome repositioning assays.
# Chain of recombinant purified human Mi-2β protein (Q14839 whole entry): as the sequence (Q14839 whole entry H727A) above, with A727H counted along it
compound,measurement,setting,value
Cn1c(=O)[nH]c2ccc(-c3cccc(C(=O)NC4CCn5ccnc5C4)c3)cc21 (stereo not shown) [Z36-MP5],Cmax,Pharmacokinetics in rats,3960 ng/mL
same,half-life,Pharmacokinetics in rats; read-out: half-life T1/2 (converted),27 min
same,effectiveness after neutralization of CD8 T cells,B16F10 cell graft [1],completely abolished the effectiveness
same,CD4+ T-cell and Treg populations,[2],not affected
same,CD8+ T-cell population,[2],moderately induced
same,inhibition of Mi-2β ATPase,[3]; 1 µM,completely inhibits
same,IC50,[3]; ATP 10 μM,0.079 ± 0.013 µM
same,IC50,[3]; ATP 30 μM,0.198 ± 0.033 µM
same,IC50,[3]; ATP 100 μM,0.576 ± 0.086 µM
same,IC50,[3]; ATP 300 μM,1.66 ± 0.358 µM
same,IC50,"[3]; Mi-2β chromatin modulatory activity, n = 3",0.082 ± 0.013 µM
same,mode of inhibition,[3]; IC50 increased with ATP 10–300 µM,ATP-competitive inhibitor
same,potency relative to the original compound Z36,[3]; ratio of IC50 values,~ 85 fold
same,expressions of Mi-2β target genes Cxcl9 and Cxcl10,[4]; 5 μM to 100 μM,substantial increases
same,"Mi-2β target gene expression (Cxcl9, Cxcl10 mRNA)","[4]; 25 µM, 24 h",induced Mi-2β target gene expression including Cxcl9 and Cxcl10
same,activity against 468 kinases,468 kinases,extremely high kinase selectivity; also recorded: not significantly active on any targets tested
same,treatment effect in mice treated with MS177 to inhibit EZH2,"B16F10 cell graft [5]; B16F10 graft, MS177 100 mg/kg 5 days, then anti-PD-1 with Z36-MP5 or vehicle",No treatment effects were detected
same,effect on tumors generated from Mi-2β-null cells,B16F10 cell graft [5]; Z36-MP5 30 mg/kg/day accompanied by anti-PD-1,No detectable inhibitory effect
same,sensitivity of Mi-2β H727A mutant to inhibitor,Mi-2β mutation (H727A),no longer sensitive; also recorded: histidine 727 of Mi-2β dependent
